The term mass density denotes the mass of a sample divided by its volume. For orientation: refractive index means a measure of how strongly the sample bends light. In general, vapor or sublimation pressure refers to the pressure of vapour in equilibrium with the condensed phase.

From the NIST ThermoML archive (doi:10.1021/je050316s) come the findings set out here.

“And” between values parts separate entries of the source, which are not always exact repeats. Equal entries are not always repeated. ± gives the expanded uncertainty stated by the source.

The conditions of series [1]: Liquid; for mass density: 101.33 kPa.
Series [2] in a line: refractive index (Na D-line) (dimensionless). The following applies: 101.33 kPa, Liquid, Standard Abbe refractometry.

In the case of `CCCCCCCCCCC` [undecane], the mass density in series [1] (293.15 K) was 740.11 ± 0.28 kg/m3 and 740.11 ± 0.36 kg/m3; in series [1] (303.15 K) it was 732.93 ± 0.36 kg/m3. The refractive index in series [2] (293.15 K) is on record as 1.4162 ± 0.0004.
For the molecule `Nc1ccccc1` [aniline], the mass density is reported as 1021.72 ± 0.27 kg/m3 in series [1] (293.15 K) and 1012.94 ± 0.27 kg/m3 in series [1] (303.15 K). The refractive index in series [2] (293.15 K) came to 1.5862 ± 0.0004.
Turning to `CCCCCCC` [heptane], the mass density in series [1] (298.15 K) was determined as 679.43 ± 0.44 kg/m3; in series [1] (303.15 K), 675.32 ± 0.44 kg/m3. Also, the refractive index in series [2] (298.15 K) is on record as 1.3853 ± 0.0004.
In the same order, the values of `CCCCCCCC` [octane] are 698.49 ± 0.39 kg/m3, 694.67 ± 0.39 kg/m3 and 1.3946 ± 0.0004.
For `CCc1ccccc1` [ethylbenzene], the mass density in series [1] (298.15 K) was 862.59 ± 0.19 kg/m3. For the same molecule, the refractive index in series [2] (293.15 K) was 1.496 ± 0.0004.
As for `CCCCCCCCCC` [decane], the mass density in series [1] (298.15 K) is 726.55 ± 0.38 kg/m3; in series [1] (303.15 K), 722.54 ± 0.38 kg/m3. The refractive index in series [2] (298.15 K) is reported as 1.4092 ± 0.0004.
Turning to `Cc1ccccc1` [toluene], the mass density in series [1] (293.15 K) worked out at 866.78 ± 0.19 kg/m3. The entries for the “vapor or sublimation pressure” value in series [1] (333.15 K) and in series [1] (363.15 K) were 18.56 ± 0.56 kPa and 54.49 ± 0.72 kPa, respectively. Besides, in series [2] (293.15 K), the refractive index is given as 1.496 ± 0.0004.
As for `NC1CCCCC1` [cyclohexylamine], the mass density in series [1] (303.15 K) was 858.2 ± 0.18 kg/m3. The figures for the “vapor or sublimation pressure” value in series [1] (333.15 K) and in series [1] (363.15 K) were 7.51 ± 0.5 kPa and 25.59 ± 0.58 kPa, respectively. Moreover, the refractive index in series [2] (288.15 K) is given as 1.4624 ± 0.0005.
Consider `CCCCCCCCC` [nonane], for which the mass density in series [1] (293.15 K) is recorded as 719.13 ± 0.38 kg/m3; in series [1] (303.15 K), 710.05 ± 0.38 kg/m3. For the same molecule, the refractive index in series [2] (293.15 K) is 1.4055 ± 0.0004.
